The text below walks through data of US7875300B2, “Methods for reducing circulating glucose levels” (Rutgers, The State University of New Jersey, priority 2006, dated 2011).

The subject of assay [1] is male C57BL/6 mice on high fat diet. Briefly: Fasting blood glucose levels after a single gavage in mice on a high fat diet. The format is in vivo. The conditions noted are these: 300 mg, Group 5, gavage. Here is the method:
The Aframomum melegueta-derived hypoglycemic extract product of Example 1 was tested in vivo for hypoglycemic activity.
(§1) Five week old male C57BL/6 mice (Jackson Laboratories, Bar Harbor, Me.) were placed on either low fat or high fat rodent diets (D12450B, 10% kcal, low fat or D12492, 60% kcal, high fat, Research Diets, New Brunswick, N.J.).
The mice were housed four to a cage under controlled temperature ([…]) and 12 hr light-dark cycles. Food (standard mouse chow, Purina) and water were available on an ad libitum basis for 7 days. The mice were then randomly divided into six groups (n=6) for the study. Five groups of mice were fed the high fat diet for 12 weeks (Groups 1-5), and the sixth group (Group 6) was fed the low fat diet for 12 weeks. Weekly food intake per cage and individual body weights were determined throughout the study.
After 12 weeks, all mice (Groups 1-6) were fasted for 4 hrs. After fasting, Group 1 mice provided a control and were gavaged with saline containing 5% DMSO; mice of Groups 2-4 were gavaged with different concentrations of the hypoglycemic extract product of Example 1 in 5% DMSO; and, Group 5 mice were gavaged with 300 mg/kg of Metformin in 5% DMSO as a positive control. Group 6 mice, which were fed a low fat diet, were gavaged with saline containing 5% DMSO and thus were also used as a control. Blood glucose levels were measured with a One Touch® Ultra® handheld glucometer (Lifescan, Milpitas, Calif.) using One Touch® Ultra® test strips. Mice were deprived of food during testing and the blood glucose levels of whole blood (obtained from a tail nick procedure) were determined at certain times (0, 3, and 5 hours after fasting commenced).
[…] with compositions comprising […]. The blood glucose levels were tested immediately after treatment (0 hours) and then 3 and 5 hours after treatment.

The test system of assay [2] is high fat diet-induced diabetic model (male C57BL/6 mice). The assay can be described thus: Oral glucose tolerance test in high fat diet-induced diabetic model. The format is in vivo. As to conditions: OGTT after 1 wk. The procedure:
The Aframomum melegueta-derived hypoglycemic extract product of Example 1 was tested in vivo for hypoglycemic activity using a high fat diet-induced diabetic model.
as §1
The mice were housed individually under controlled temperature (70° F.) and 12 hr light-dark cycles. Food (standard mouse chow, Purina) and water were available on an ad libitum basis for 7 days. The mice were then randomly divided into control Groups 1 and 6 (n=8-10), treatment Groups 2 and 3 (n=6), and two positive control Groups 4 and 5 (n=6) for the study. The control mice continued to receive either a high fat diet or a low fat diet, and the treatment groups were fed the high fat diet for a 14 week period. Two groups of mice were gavaged with PMI006 at a dose of 500 mg/kg daily. As a positive control, Metformin was administered at a dose of 300 mg/kg in two groups of positive control mice.
An oral glucose tolerance test was performed after seven days of treatment. On the test day, animals were fasted for seven hours and glucose (2.0 g/kg) was then orally administered to them. […]
Mice were deprived of food during testing and the blood glucose levels of whole blood (obtained from a tail nick procedure) were determined at certain times. The Aframomum melegueta-derived hypoglycemic extract product of Example 1 was orally administered at a dosage of 500 mg/kg to the two treatment Groups 2 and 3 either 1.5 or 3.0 hours before the glucose challenge. Metformin was orally administered at a dosage of 300 mg/kg to the animals in the positive control Groups 4 and 5 either 1.5 or 3.0 hours before the glucose challenge.

Where “and” joins values, the source holds several entries; their conditions need not be identical. Equal values may be shown once.

Consider `CN(C)C(=N)N=C(N)N` [Metformin], for which the “Avg. glucose” value in assay [1] (Time - 0 hours) came out at 218.5 mg/dL; in assay [1] (Time - 3 hours), 149.7 mg/dL. In addition, the “glucose (mg/dl), individual animals” value in assay [1] (Time - 0 hours) was 252 mg/dL and 188 mg/dL and 194 mg/dL and 184 mg/dL and 274 mg/dL and 219 mg/dL; in assay [1] (Time - 3 hours), 66 mg/dL and 148 mg/dL and 161 mg/dL and 147 mg/dL and 157 mg/dL and 219 mg/dL; in assay [1] (Time - 5 hours) it was 145 mg/dL and 96 mg/dL and 119 mg/dL and 124 mg/dL and 162 mg/dL and 123 mg/dL. For the same compound, in assay [1] (Time - 5 hours), the “Average value” was 128.2 mg/dL. Also, the “Plasma glucose” value in assay [2] (300 mg/kg oral 1.5 hr before glucose challenge, Group 4, 0 min) was 160 ± 4.9 mg/dL; in assay [2] (300 mg/kg oral 1.5 hr before glucose challenge, Group 4, 30 min) it was 235 ± 12.2 mg/dL; in assay [2] (300 mg/kg oral 1.5 hr before glucose challenge, Group 4, 60 min), 190 ± 11.1 mg/dL; in assay [2] (300 mg/kg oral 1.5 hr before glucose challenge, Group 4, 90 min), 164 ± 6.0 mg/dL; in assay [2] (300 mg/kg oral 3 hr before glucose challenge, Group 5, 0 min), 173 ± 13.2 mg/dL; in assay [2] (300 mg/kg oral 3 hr before glucose challenge, Group 5, 30 min), 207 ± 26.7 mg/dL. Moreover, the “Plasma glucose” value in assay [2] (300 mg/kg oral 3 hr before glucose challenge, Group 5, 60 min) turned out to be 171 ± 14.8 mg/dL; in assay [2] (300 mg/kg oral 3 hr before glucose challenge, Group 5, 90 min) it was 158 ± 6.7 mg/dL.
